Test results published in ChEMBL document CHEMBL5723584 (2023).
The source made the active and inactive calls. The rule behind the calls is not given here.

What was measured:
[1] = molecular target: Phosphatidylinositol 4-phosphate 5-kinase type-1 alpha (Homo sapiens) (UniProt Q99755); assay: activity of PIP5K1alpha(h) at 1.0 µM in the Eurofins Kinase panel; conditions: Compound concentration 1.0 uM
[2] = molecular target: Activin receptor type-1 (Homo sapiens) (UniProt Q04771); assay: activity of ALK2(h) at 1.0 µM in the Eurofins Kinase panel; conditions: Compound concentration 1.0 uM
[3] = molecular target: Myosin-IIIb (Homo sapiens) (UniProt Q8WXR4); assay: activity of MYO3B(h) at 1.0 µM in the Eurofins Kinase panel; conditions: Compound concentration 1.0 uM
[4] = molecular target: Cyclin-dependent kinase 2/cyclin E (Homo sapiens) (UniProt P24864+P24941+O96020); assay: activity of CDK2/cyclinE(h) at 1.0 µM in the Eurofins Kinase panel; type: protein-complex assay; conditions: Compound concentration 1.0 uM
[5] = molecular target: Serine/threonine-protein kinase NLK (Homo sapiens) (UniProt Q9UBE8); assay: activity of NLK(h) at 1.0 µM in the Eurofins Kinase panel; conditions: Compound concentration 1.0 uM
[6] = molecular target: Testis-specific serine/threonine-protein kinase 3 (Homo sapiens) (UniProt Q96PN8); assay: activity of TSSK3(h) at 1.0 µM in the Eurofins Kinase panel; conditions: Compound concentration 1.0 uM
[7] = molecular target: Mitogen-activated protein kinase kinase kinase 9 (Homo sapiens) (UniProt P80192); assay: activity of MLK1(h) at 1.0 µM in the Eurofins Kinase panel; conditions: Compound concentration 1.0 uM
[8] = molecular target: Serine/threonine-protein kinase Sgk1 (Homo sapiens) (UniProt O00141); assay: activity of SGK(h) at 1.0 µM in the Eurofins Kinase panel; conditions: Compound concentration 1.0 uM
[9] = molecular target: Dual specificity tyrosine-phosphorylation-regulated kinase 3 (Homo sapiens) (UniProt O43781); assay: activity of DYRK3(h) at 1.0 µM in the Eurofins Kinase panel; conditions: Compound concentration 1.0 uM
[10] = molecular target: Serine/threonine-protein kinase WNK2 (Homo sapiens) (UniProt Q9Y3S1); assay: activity of WNK2(h) at 1.0 µM in the Eurofins Kinase panel; conditions: Compound concentration 1.0 uM
[11] = molecular target: Tyrosine-protein kinase receptor UFO (Homo sapiens) (UniProt P30530); assay: activity of Axl(h) at 1.0 µM in the Eurofins Kinase panel; conditions: Compound concentration 1.0 uM
[12] = molecular target: Dual specificity tyrosine-phosphorylation-regulated kinase 1B (Homo sapiens) (UniProt Q9Y463); assay: activity of DYRK1B(h) at 1.0 µM in the Eurofins Kinase panel; conditions: Compound concentration 1.0 uM
[13] = molecular target: Serine/threonine-protein kinase TAO3 (Homo sapiens) (UniProt Q9H2K8); assay: activity of TAO3(h) at 1.0 µM in the Eurofins Kinase panel; conditions: Compound concentration 1.0 uM
[14] = molecular target: Serine/threonine-protein kinase pim-2 (Homo sapiens) (UniProt Q9P1W9); assay: activity of Pim-2(h) at 1.0 µM in the Eurofins Kinase panel; conditions: Compound concentration 1.0 uM
[15] = molecular target: Tribbles homolog 2 (Homo sapiens) (UniProt Q92519); assay: activity of TRB2(h) at 1.0 µM in the Eurofins Kinase panel; conditions: Compound concentration 1.0 uM
[16] = molecular target: cAMP-dependent protein kinase catalytic subunit alpha (Homo sapiens, UniProt P17612); assay: Promega NanoBRET (PRKACA)
[17] = molecular target: Phosphatidylinositol 4-phosphate 5-kinase type-1 gamma (Homo sapiens) (UniProt O60331); assay: activity of PIP5K1gamma(h) at 1.0 µM in the Eurofins Kinase panel; conditions: Compound concentration 1.0 uM
[18] = molecular target: High affinity nerve growth factor receptor (Homo sapiens) (UniProt P04629); assay: activity of TrkA(h) at 1.0 µM in the Eurofins Kinase panel; conditions: Compound concentration 1.0 uM
[19] = molecular target: cAMP-dependent protein kinase (PKA) (Homo sapiens) (UniProt P22694+P17612+P22612); assay: activity of PKA(h) at 1.0 µM in the Eurofins Kinase panel; type: protein assay; conditions: Compound concentration 1.0 uM
[20] = molecular target: Ephrin type-B receptor 1 (Homo sapiens) (UniProt P54762); assay: activity of EphB1(h) at 1.0 µM in the Eurofins Kinase panel; conditions: Compound concentration 1.0 uM
[21] = molecular target: STE20-like serine/threonine-protein kinase (Homo sapiens) (UniProt Q9H2G2); assay: activity of SLK(h) at 1.0 µM in the Eurofins Kinase panel; conditions: Compound concentration 1.0 uM
[22] = molecular target: Testis-specific serine/threonine-protein kinase 1 (Homo sapiens) (UniProt Q9BXA7); assay: activity of TSSK1(h) at 1.0 µM in the Eurofins Kinase panel; conditions: Compound concentration 1.0 uM
[23] = molecular target: Myosin light chain kinase (Homo sapiens) (UniProt Q32MK0); assay: activity of MLCK(h) at 1.0 µM in the Eurofins Kinase panel; conditions: Compound concentration 1.0 uM
[24] = molecular target: Dual specificity protein kinase CLK1 (Homo sapiens) (UniProt P49759); assay: activity of CLK1(h) at 1.0 µM in the Eurofins Kinase panel; conditions: Compound concentration 1.0 uM
[25] = molecular target: Serine-protein kinase ATM (Homo sapiens) (UniProt Q13315); assay: activity of ATM(h) at 1.0 µM in the Eurofins Kinase panel; conditions: Compound concentration 1.0 uM
[26] = molecular target: Tyrosine-protein kinase Fyn (Homo sapiens) (UniProt P06241); assay: activity of Fyn(h) at 1.0 µM in the Eurofins Kinase panel; conditions: Compound concentration 1.0 uM
Sequence of Tyrosine-protein kinase Fyn (Homo sapiens) (P06241 2-537 limits assumed): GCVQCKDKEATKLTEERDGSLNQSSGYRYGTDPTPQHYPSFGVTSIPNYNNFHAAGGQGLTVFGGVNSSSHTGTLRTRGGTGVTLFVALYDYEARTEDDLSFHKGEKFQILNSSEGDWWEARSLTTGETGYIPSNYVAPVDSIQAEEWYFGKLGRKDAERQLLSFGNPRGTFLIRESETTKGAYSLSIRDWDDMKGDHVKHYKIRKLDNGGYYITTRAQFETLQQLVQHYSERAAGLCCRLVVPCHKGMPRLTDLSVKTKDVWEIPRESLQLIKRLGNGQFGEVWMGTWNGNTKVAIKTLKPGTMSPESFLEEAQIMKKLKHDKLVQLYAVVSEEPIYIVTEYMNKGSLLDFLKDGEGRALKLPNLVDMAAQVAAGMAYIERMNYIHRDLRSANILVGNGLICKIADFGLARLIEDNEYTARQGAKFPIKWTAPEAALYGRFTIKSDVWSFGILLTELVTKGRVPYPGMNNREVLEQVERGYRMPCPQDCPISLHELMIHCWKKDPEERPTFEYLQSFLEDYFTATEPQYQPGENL

[27] = molecular target: Citron Rho-interacting kinase (Homo sapiens, UniProt O14578); assay: NanoLuc NanoBRET (CIT); conditions: read-out: Kd
[28] = molecular target: Tyrosine-protein kinase Tec (Homo sapiens) (UniProt P42680); assay: activity of Tec(h) activated at 1.0 µM in the Eurofins Kinase panel; conditions: Compound concentration 1.0 uM
[29] = molecular target: DNA-dependent protein kinase catalytic subunit (Homo sapiens) (UniProt P78527); assay: activity of DNA-PK(h) at 1.0 µM in the Eurofins Kinase panel; conditions: Compound concentration 1.0 uM
Sequence of DNA-dependent protein kinase catalytic subunit (Homo sapiens) (P78527 whole entry): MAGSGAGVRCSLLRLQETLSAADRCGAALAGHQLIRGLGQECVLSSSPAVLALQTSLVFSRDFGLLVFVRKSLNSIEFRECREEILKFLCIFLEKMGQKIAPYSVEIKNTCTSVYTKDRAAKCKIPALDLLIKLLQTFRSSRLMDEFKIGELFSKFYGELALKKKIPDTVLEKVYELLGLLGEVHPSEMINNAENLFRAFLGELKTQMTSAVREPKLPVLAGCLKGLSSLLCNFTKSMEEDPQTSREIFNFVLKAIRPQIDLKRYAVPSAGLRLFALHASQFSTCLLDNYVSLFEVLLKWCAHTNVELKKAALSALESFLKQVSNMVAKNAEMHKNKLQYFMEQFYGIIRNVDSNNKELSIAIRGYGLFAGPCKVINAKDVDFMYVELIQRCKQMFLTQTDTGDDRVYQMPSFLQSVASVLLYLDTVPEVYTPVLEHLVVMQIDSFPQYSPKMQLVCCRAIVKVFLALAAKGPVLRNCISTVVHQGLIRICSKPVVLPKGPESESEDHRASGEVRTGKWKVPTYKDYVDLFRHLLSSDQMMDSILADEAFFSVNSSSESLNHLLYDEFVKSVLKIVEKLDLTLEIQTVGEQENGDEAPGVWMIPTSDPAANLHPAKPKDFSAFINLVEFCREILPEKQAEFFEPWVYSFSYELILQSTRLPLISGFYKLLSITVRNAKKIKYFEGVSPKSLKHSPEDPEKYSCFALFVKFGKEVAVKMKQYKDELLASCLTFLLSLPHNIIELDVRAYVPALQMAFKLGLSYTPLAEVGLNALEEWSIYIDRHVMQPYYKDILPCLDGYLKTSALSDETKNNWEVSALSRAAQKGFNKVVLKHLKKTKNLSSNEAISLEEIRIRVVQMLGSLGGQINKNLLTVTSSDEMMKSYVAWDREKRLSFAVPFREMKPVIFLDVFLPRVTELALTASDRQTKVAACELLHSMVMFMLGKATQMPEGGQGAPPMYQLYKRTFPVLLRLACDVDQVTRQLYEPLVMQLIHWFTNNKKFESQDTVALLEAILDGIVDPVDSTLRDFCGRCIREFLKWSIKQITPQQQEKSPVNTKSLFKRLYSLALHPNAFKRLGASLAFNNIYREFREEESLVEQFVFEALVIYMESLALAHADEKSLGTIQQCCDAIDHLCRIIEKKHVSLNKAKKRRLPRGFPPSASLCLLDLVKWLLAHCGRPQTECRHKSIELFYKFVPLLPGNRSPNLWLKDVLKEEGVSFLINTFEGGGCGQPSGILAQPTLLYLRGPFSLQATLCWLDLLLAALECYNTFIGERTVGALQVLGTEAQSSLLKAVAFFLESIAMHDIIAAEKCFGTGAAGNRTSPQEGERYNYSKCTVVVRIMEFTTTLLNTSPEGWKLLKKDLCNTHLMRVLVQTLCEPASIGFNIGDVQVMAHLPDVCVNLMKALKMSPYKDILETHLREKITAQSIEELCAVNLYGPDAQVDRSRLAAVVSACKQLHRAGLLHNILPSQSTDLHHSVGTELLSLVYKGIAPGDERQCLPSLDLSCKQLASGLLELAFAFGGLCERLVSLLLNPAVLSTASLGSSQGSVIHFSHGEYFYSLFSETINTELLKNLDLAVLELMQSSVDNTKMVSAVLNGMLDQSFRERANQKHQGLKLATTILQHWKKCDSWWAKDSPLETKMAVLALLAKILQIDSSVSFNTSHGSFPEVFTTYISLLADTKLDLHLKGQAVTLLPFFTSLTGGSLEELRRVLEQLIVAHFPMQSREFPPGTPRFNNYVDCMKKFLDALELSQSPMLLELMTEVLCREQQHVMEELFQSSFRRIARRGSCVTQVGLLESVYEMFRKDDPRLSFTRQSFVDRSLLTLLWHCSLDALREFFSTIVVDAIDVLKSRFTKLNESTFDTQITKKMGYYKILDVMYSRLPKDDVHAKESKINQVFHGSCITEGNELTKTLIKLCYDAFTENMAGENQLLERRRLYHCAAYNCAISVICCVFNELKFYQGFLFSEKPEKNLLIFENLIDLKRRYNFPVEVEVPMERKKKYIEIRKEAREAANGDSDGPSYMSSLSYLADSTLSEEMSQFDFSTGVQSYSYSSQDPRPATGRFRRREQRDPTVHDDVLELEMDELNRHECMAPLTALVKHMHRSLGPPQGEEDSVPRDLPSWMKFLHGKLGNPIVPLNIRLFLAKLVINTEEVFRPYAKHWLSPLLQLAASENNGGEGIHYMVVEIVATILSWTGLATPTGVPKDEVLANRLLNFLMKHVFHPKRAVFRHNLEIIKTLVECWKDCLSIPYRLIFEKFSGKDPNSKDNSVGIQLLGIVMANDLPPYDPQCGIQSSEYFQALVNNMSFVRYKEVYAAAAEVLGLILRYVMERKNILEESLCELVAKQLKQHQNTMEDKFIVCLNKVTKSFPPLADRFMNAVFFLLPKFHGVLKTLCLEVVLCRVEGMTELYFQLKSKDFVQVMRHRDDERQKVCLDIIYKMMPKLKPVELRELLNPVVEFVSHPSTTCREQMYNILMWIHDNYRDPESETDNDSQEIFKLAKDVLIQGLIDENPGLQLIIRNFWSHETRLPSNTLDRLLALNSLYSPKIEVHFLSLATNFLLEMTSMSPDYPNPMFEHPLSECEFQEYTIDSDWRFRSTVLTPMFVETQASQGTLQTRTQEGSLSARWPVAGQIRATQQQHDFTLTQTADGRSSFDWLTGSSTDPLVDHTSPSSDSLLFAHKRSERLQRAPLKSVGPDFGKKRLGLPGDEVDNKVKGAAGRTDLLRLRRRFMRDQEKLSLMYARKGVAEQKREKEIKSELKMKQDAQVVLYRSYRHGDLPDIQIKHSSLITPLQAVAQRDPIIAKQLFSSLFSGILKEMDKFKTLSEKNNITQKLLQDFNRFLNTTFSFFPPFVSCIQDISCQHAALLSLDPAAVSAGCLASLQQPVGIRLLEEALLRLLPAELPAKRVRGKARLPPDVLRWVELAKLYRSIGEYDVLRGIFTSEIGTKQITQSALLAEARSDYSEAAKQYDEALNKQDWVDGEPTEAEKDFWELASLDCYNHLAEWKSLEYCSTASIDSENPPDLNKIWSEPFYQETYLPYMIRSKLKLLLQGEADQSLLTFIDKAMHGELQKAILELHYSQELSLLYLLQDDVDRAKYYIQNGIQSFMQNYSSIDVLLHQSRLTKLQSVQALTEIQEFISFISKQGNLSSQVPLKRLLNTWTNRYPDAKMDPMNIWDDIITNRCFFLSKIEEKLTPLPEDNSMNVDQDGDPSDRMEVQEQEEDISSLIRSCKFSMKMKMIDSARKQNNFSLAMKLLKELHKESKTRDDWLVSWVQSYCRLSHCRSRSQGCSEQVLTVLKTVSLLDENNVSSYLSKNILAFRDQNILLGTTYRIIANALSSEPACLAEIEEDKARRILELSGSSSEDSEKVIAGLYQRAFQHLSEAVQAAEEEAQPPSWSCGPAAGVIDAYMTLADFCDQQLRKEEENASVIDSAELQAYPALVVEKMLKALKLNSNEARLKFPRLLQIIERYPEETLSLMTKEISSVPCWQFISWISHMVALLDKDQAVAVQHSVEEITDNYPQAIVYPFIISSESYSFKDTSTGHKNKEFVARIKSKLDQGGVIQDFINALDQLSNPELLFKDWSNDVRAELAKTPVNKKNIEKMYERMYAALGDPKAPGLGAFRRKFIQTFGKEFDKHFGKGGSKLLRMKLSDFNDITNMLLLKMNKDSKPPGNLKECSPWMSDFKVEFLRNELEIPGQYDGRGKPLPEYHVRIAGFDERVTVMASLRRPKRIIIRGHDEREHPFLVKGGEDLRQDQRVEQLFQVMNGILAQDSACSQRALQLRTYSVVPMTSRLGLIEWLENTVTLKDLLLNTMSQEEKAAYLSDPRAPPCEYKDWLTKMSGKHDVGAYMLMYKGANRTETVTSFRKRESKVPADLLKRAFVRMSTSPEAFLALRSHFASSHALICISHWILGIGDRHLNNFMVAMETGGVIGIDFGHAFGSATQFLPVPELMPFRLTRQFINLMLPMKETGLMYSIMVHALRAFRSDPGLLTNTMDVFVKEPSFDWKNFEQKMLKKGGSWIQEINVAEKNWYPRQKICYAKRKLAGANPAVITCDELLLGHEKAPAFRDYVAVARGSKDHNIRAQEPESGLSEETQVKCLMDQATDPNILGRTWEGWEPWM

[30] = molecular target: Leukocyte tyrosine kinase receptor (Homo sapiens) (UniProt P29376); assay: activity of LTK(h) at 1.0 µM in the Eurofins Kinase panel; conditions: Compound concentration 1.0 uM
[31] = molecular target: Tyrosine-protein kinase ZAP-70 (Homo sapiens) (UniProt P43403); assay: activity of ZAP-70(h) at 1.0 µM in the Eurofins Kinase panel; conditions: Compound concentration 1.0 uM
[32] = molecular target: Receptor-interacting serine/threonine-protein kinase 1 (Homo sapiens) (UniProt Q13546); assay: activity of RIPK1(h) at 1.0 µM in the Eurofins Kinase panel; conditions: Compound concentration 1.0 uM
[33] = molecular target: Cyclin-dependent kinase 14/Cyclin-Y (Homo sapiens) (UniProt O94921+Q8ND76); assay: activity of CDK14/cyclinY(h) at 1.0 µM in the Eurofins Kinase panel; type: protein-complex assay; conditions: Compound concentration 1.0 uM
[34] = molecular target: Transcription initiation factor TFIID subunit 1-like (Homo sapiens) (UniProt Q8IZX4); assay: activity of TAF1L(h) at 1.0 µM in the Eurofins Kinase panel; conditions: Compound concentration 1.0 uM
[35] = molecular target: Serine/threonine-protein kinase Nek3 (Homo sapiens) (UniProt P51956); assay: activity of NEK3(h) at 1.0 µM in the Eurofins Kinase panel; conditions: Compound concentration 1.0 uM
Sequence of Serine/threonine-protein kinase Nek3 (Homo sapiens) (P51956 whole entry): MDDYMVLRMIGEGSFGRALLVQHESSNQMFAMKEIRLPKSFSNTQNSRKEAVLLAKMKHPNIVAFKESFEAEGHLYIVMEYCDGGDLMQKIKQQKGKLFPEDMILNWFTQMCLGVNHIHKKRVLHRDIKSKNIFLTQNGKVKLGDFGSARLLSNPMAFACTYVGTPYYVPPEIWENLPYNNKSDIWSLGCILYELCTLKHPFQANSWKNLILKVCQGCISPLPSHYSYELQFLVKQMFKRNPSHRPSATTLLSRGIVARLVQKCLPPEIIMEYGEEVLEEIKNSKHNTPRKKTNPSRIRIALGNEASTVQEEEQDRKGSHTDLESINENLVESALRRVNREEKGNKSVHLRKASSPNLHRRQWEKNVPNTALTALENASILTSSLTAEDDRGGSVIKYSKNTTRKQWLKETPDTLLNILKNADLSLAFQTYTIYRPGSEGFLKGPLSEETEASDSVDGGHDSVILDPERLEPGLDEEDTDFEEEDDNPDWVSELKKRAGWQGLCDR

[36] = molecular target: Serine/threonine-protein kinase DCLK2 (Homo sapiens) (UniProt Q8N568); assay: activity of DCAMKL2(h) at 1.0 µM in the Eurofins Kinase panel; conditions: Compound concentration 1.0 uM
[37] = molecular target: Insulin receptor (Homo sapiens) (UniProt P06213); assay: activity of IR(h), activated at 1.0 µM in the Eurofins Kinase panel; conditions: Compound concentration 1.0 uM
[38] = molecular target: Tyrosine-protein kinase JAK2 (Homo sapiens) (UniProt O60674); assay: activity of JAK2(h) at 1.0 µM in the Eurofins Kinase panel; conditions: Compound concentration 1.0 uM
[39] = molecular target: Ribosomal protein S6 kinase alpha-4 (Homo sapiens) (UniProt O75676); assay: activity of MSK2(h) at 1.0 µM in the Eurofins Kinase panel; conditions: Compound concentration 1.0 uM

SMILES: Cc1cc2c(-c3ccc(NC(=O)[C@H](N)CC(C)(C)C)cc3C)ccnc2[nH]1
- activity [1]: 103%
- activity [2]: 122%
- activity [3]: 79%
- activity [4]: 92%
- activity [5]: 98%
- activity [6]: 96%
- activity [7]: 103%
- activity [8]: 113%
- activity [9]: 99%
- activity [10]: 94%
- activity [11]: 91%
- activity [12]: 108%
- activity [13]: 100%
- activity [14]: 117%
- activity [15]: 104%
- IC50 [16]: > 10 µM (not active)
- activity [17]: 102%
- activity [18]: 105%
- activity [19]: 109%
- activity [20]: 83%
- activity [21]: 109%
- activity [22]: 116%
- activity [23]: 98%
- activity [24]: 88%
- activity [25]: 103%
- activity [26]: 100%
- Kd [27]: 0.0095 µM (active)
- activity [28]: 126%
- activity [29]: 107%
- activity [30]: 97%
- activity [31]: 71%
- activity [32]: 84%
- activity [33]: 91%
- activity [34]: 101%
- activity [35]: 110%
- activity [36]: 104%
- activity [37]: 92%
- activity [38]: 104%
- activity [39]: 88%
